# Experimental data reported in patent US8124599B2, “Method for treating neuronal and non-neuronal pain” (priority 2005, dated 2012).
# What was measured:
# [1] = test system: acute inflammatory muscle pain; experiment: Formalin lick test for acute inflammatory muscle pain; format: in vivo, mice
# Description: The mice used in this work were C57B1/6 strain adults (8 weeks old) and AC1 knockout mice of C57B1/6 background (Wei et al., 2002; Neuron). The animals were housed on a 12 h: 12 h light: dark cycle with food and water available ad libidum. All the protocols were in accordance with the Animal Care Committee of the University of Toronto. Both wild type and the knockouts were well groomed. Experimenters were blind to genotype. Under brief halothane anesthesia, 10 μL of 5% formalin was injected to the left gastronemius muscle. The needle was directed from the lateral side to avoid any bony penetration and the tip was stopped at the middle of the muscle belly. The total time spent licking or biting the injected leg including the thigh and the paw was recorded and totaled every 5 minutes for a period of 2 hours. To study the effect of test compounds on behavior, each compound to be tested was injected intra-peritoneally 30 minutes before the intramuscular injection of formalin.
# neuropathic pain = experiment: Neuropathic pain (common peroneal nerve ligation), mechanical allodynia; format: in vivo, mice; conditions: 0.1 and 1 mg/kg body weight
# Description: The mice used in this work were C57B1/6 strain adults (8 weeks old) and AC1 knockout mice of C57B1/6 background (Wei et al., 2002; Neuron). The animals were housed on a 12 h: 12 h light: dark cycle with food and water available ad libidum. All the protocols were in accordance with the Animal Care Committee of the University of Toronto. Both wild type and the knockouts were well groomed. Experimenters were blind to genotype. Mice were placed in a plexi-glass restrainer and allowed to acclimate for 30 minutes prior to testing. Mechanical allodynia was assessed based on the responsiveness of the hind paw to the application of von Frey filaments (Stoelting, Wood Dale, Ill.) to the point of bending. Positive responses include licking, biting and sudden withdrawing of the hind paw. Experiments were carried out to characterize the threshold stimulus. […] This filament was then used to test mechanical allodynia. Ten trials were carried out each time at an interval of 5 minutes and the results were expressed as a percentage of positive responses. Positive responses included prolonged hind paw withdrawal followed by licking or scratching. Neuropathic pain was induced by ligating the common peroneal nerve as previously known in the art. […] The effect of AC1 inhibition was assessed on maximal mechanical allodynia over the dorsum of the foot on the ipsilateral side of ligation on day 7. […]
# [2] = test system: combined chronic inflammatory pain and neuropathic pain; experiment: Combination of chronic inflammatory pain and neuropathic pain, mechanical allodynia; format: in vivo, mice; conditions: i.p. pre-treatment
# Description: The mice used in this work were C57B1/6 strain adults (8 weeks old) and AC1 knockout mice of C57B1/6 background (Wei et al., 2002; Neuron). The animals were housed on a 12 h: 12 h light: dark cycle with food and water available ad libidum. All the protocols were in accordance with the Animal Care Committee of the University of Toronto. Both wild type and the knockouts were well groomed. Experimenters were blind to genotype. A muscle model of mechanical allodynia developed originally to study chronic pain (Sluka et al., 2001) was adapted for these experiments. Mice were briefly anaesthetized under halothane. 20μ liters carrageenan (3%, in normal saline pH 7.2) was injected intramuscularly deep into the left gastronemius muscle. Normal saline was used as a control. Injections were carried out on days 1 and 5. Behavioral nociceptive responses were measured on days 1, 2, 5 (before and after injection), 14 and 28. […] Mechanical allodynia was assessed based on the responsiveness of the hind paw to the application of von Frey filaments (Stoelting, Wood Dale, Ill.) to the point of bending. […] Ten trials were carried out each time at an interval of 5 minutes and the results were expressed as a percentage of positive responses. […] The effect of AC1 inhibition was assessed on maximal mechanical allodynia over the dorsum of the foot on the ipsilateral side of ligation on day 7. […]
# [3] = test system: chronic inflammatory muscle pain; experiment: Chronic inflammatory muscle pain (intramuscular carrageenan), mechanical allodynia by von Frey filament; format: in vivo, mice
# Description: The mice used in this work were C57B1/6 strain adults (8 weeks old) and AC1 knockout mice of C57B1/6 background (Wei et al., 2002; Neuron). The animals were housed on a 12 h: 12 h light: dark cycle with food and water available ad libidum. All the protocols were in accordance with the Animal Care Committee of the University of Toronto. Both wild type and the knockouts were well groomed. Experimenters were blind to genotype. A muscle model of mechanical allodynia developed originally to study chronic pain (Sluka et al., 2001) was adapted for these experiments. Mice were briefly anaesthetized under halothane. 20μ liters carrageenan (3%, in normal saline pH 7.2) was injected intramuscularly deep into the left gastronemius muscle. Normal saline was used as a control. Injections were carried out on days 1 and 5. Behavioral nociceptive responses were measured on days 1, 2, 5 (before and after injection), 14 and 28. Mice were placed in a plexi-glass restrainer and allowed to acclimate for 30 minutes prior to testing. Mechanical allodynia was assessed based on the responsiveness of the hind paw to the application of von Frey filaments (Stoelting, Wood Dale, Ill.) to the point of bending. […] Ten trials were carried out each time at an interval of 5 minutes and the results were expressed as a percentage of positive responses. […]
# [4] = test system: mechanical allodynia in pain model; experiment: Oral administration to pain model (rat), mechanical allodynia; format: in vivo; conditions: 1 mg/kg/3 ml, as compared with the response to gabapentin
Structure (SMILES),"dose of peak response, licking response of acute muscle inflammatory pain ([1]; dose range 0.1 to 5 mg/kg)","licking response of acute muscle inflammatory pain ([1]; dose range of 0.1 to 5 mg/kg bodyweight, intra-peritoneally 30 minutes before formalin, P<0.001)",allodynia in neuropathic pain (neuropathic pain),mechanical allodynia in combined chronic inflammatory and neuropathic pain ([2]; 0.1 and 1 mg/kg body weight),"mechanical allodynia in chronic inflammatory muscle pain, comparison of dosages ([3]; 1 mg/kg versus 0.1 mg/kg)","mechanical allodynia in chronic inflammatory muscle pain ([3]; 0.1 and 1 mg/kg body weight, von Frey filament)",mechanical allodynia after oral administration [4],mechanical allodynia in combined chronic inflammatory and neuropathic pain ([2]; 0.1 mg/kg and 1.1 mg/kg body weight)
Nc1ncnc2c1ncn2CCNCCCCCO [HTS09836],1 mg/kg body weight,significant reduction,significantly reduced,significantly reduced,superior effect,significant reduction in mechanical allodynia,–,–
Nc1ncnc2c1ncn2CCNCCCCCO [NB001],–,–,–,–,–,–,significant reduction in mechanical allodynia,significantly reduced
